Measured values: BindingDB's records for doi:10.1124/mol.107.035832 (Nih, 2007)

Tests used:
[1] = biological target: T1, Serine/threonine-protein kinase Chk2 [209-531,Q209M] (Homo sapiens, UniProt O96017, Q209M); test: IMAP High-Throughput Screening; details: pH 7.2; 23 °C
T1 construct: 209-531
Procedure: The IMAP Screening Express Kit (Molecular Devices, Sunnyvale, CA) was used for the high-throughput screening experiments. Compounds from the Developmental Therapeutics Program (DTP) Open Repository were solubilized and diluted in DMSO and initially tested at one concentration in the assay. Active compounds were subsequently titrated at 20 2-fold dilutions. Reactions were performed using recombinant Chk2 with the indicated drug concentrations in reaction buffer in 384-well black microplate (Greiner Bio-One, Longwood, FL)] for 60 min at room temperature. IMAP binding reagent was added to each well, plates were incubated for 30 min at room temperature, and fluorescence polarization was measured using a Tecan Ultra plate reader. Each screening plate contained staurosporine as a positive control.

[2] = biological target: T1, Serine/threonine-protein kinase Chk2 [209-531,Q209M]; test: In Vitro Protein Kinase Assay; details: pH 7.5; 30 °C
Procedure: Recombinant Chk2 was incubated with either histone H1 (or GST-Cdc25C) in reaction buffer, and incubated at 30 deg C for indicated times. For the drug inhibition experiments, samples were coincubated with drug during the reactions. Reactions were stopped by adding sample buffer, and samples were boiled for 5 min. Reaction products were separated by 4-20% SDS-PAGE. Chk2 protein kinase activity, measured as 32P incorporation into Chk2, histone H1 (or GST-Cdc25C), was determined using a PhosphorImager (GE Healthcare, Chalfont St. Giles, Buckinghamshire, UK). Densitometry was performed using Image-Quant.

T1 sequence (O96017 209-531 Q209M): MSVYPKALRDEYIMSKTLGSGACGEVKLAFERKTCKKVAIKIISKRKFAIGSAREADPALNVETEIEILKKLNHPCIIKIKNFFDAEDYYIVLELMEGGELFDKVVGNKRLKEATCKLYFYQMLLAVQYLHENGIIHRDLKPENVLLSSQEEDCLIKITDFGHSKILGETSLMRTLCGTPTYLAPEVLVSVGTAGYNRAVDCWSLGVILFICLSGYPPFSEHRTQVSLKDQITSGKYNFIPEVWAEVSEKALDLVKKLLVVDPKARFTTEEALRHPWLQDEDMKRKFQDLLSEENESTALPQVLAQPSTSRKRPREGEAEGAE

Row | IC50 [1] | Compound | IC50 [2]
1 | > 20 µM | CNC(=O)Nc1ccc(C(C)=NNC(N)=S)cc1 [NSC 377844] | 
2 | > 20 µM | CC(=NN=C(N)N)c1cccc(NC(=O)Nc2cccc(C(C)=NN=C(N)N)c2)c1 [NSC 177944] | 
3 |  | NC1=NC(=O)C(=C2CCNC(=O)c3[nH]ccc32)N1 [B722657K110] | 0.42 µM
4 | > 20 µM | CC(=NN=C(N)N)c1cccc(NC(=S)Nc2cccc(C(C)=NN=C(N)N)c2)c1 [NSC 177941] | 
5 | 0.2 µM | CC(=NN=C(N)N)c1ccc(NC(=O)Nc2ccc(C(C)=NN=C(N)N)cc2)cc1 [diacetyldiphenylurea bisguanylhydrazone] | 0.24 µM
6 | > 20 µM | CC(=NN=C(N)N)c1ccc(C(C)=NN=C(N)N)cc1 [NSC 67931] | 
7 | > 20 µM | CC(=NN=C(N)N)c1ccc(NC(=S)Nc2ccccc2)cc1 [NSC 177940] | 

Row | Compound | IC50 [1] | IC50 [2]
8 | CC(C=NNC(=N)N)=NNC(=N)N [NSC 69432 (MGBG)] | > 20 µM | 
